# Measurements reported in patent US20220241249A1, “PHARMACEUTICAL COMPOSITION AND KIT CONTAINING NOVEL PENAM DERIVATIVE OR SALT THEREOF AND ONE OR MORE COMPOUNDS SELECTED FROM beta-LACTAMASE INHIBITORY COMPOUND AND ANTIBACTERIAL COMPOUND OR SALTS THEREOF” (priority 2019, published 2022).
# Like-named read-outs stand apart in the source and are kept apart here.
# Columns and labels:
# [1] = system: multidrug-resistant Pseudomonas aeruginosa strain (S-2838 strain); test: Test for protection against systemic infection in mouse with multidrug-resistant Pseudomonas aeruginosa; assay type: in vivo; details: sc, 72 h, read-out: survival rate 3 days after the inoculation with bacteria
# Experimental: As mice, ICR male SPF mice (4 weeks old: 10 mice per group) were used. Clinically isolated multidrug-resistant Pseudomonas aeruginosa strain (S-2838 strain) cultured overnight on a Mueller-Hinton agar plate at 37° C. was cultured on a cation-adjusted Mueller Hinton medium for 5 hours, and then diluted 20-fold with a 10% mucin/phosphate buffer, thereby preparing an inoculum. An infection was induced by intraperitoneally inoculating the mice with the inoculum at 0.5 mL (about 10^6 CFU/mouse). Each test compound was dissolved in physiological saline, and 1 hour after the infection, the compound was subcutaneously administered once to the mice at 40 mg/kg. The control group was administered with the same amount of physiological saline used as a vehicle. The number of surviving mice was recorded 3 days after the infection.
# A test for protection against systemic infection in a mouse with multidrug-resistant Pseudomonas aeruginosa was performed in the same manner as in Test Example 2.
# [2] = system: CTX-M-15-containing Escherichia coli strain (TK-1747); test: Antibacterial activity evaluation test, MIC by broth microdilution (CLSI); assay type: cell-based; details: for MIC: Escherichia coli
# Method in brief: (§1)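 Cells scraped from overnight Mueller Hinton agar are brought to 0.5 McFarland density, then diluted tenfold. This inoculum is added to cation-adjusted medium with compound and cultured 16 to 20 hours at 35° C. before growth is scored by eye.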
# [3] = system: NDM-1-containing Klebsiella pneumoniae strain (Y-1007); test: as above; assay type: cell-based; details: for MIC: Klebsiella pneumoniae
# Method in brief: as §1
# [4] = system: KPC-2-containing Klebsiella pneumoniae strain (Y-995); test: as above; assay type: cell-based; details: for MIC: Klebsiella pneumoniae
# Method in brief: as §1
# [5] = system: GES-19 and GES-20-containing Pseudomonas aeruginosa strain (S-3759); test: as above; assay type: cell-based; details: for MIC: Pseudomonas aeruginosa
# Method in brief: as §1
# [6] = system: AmpC-derepressed Pseudomonas aeruginosa mutant strain (S-3028); test: as above; assay type: cell-based; details: for MIC: Pseudomonas aeruginosa
# Method in brief: as §1
# [7] = system: VIM-2-containing Pseudomonas aeruginosa strain (S-3779); test: as above; assay type: cell-based; details: for MIC: Pseudomonas aeruginosa
# Method in brief: as §1
# [8] = system: IMP-1-containing Pseudomonas aeruginosa strain (S-2838); test: as above; assay type: cell-based; details: for MIC: Pseudomonas aeruginosa
# Method in brief: as §1
# [9] = system: OXA-48-containing Klebsiella pneumoniae strain (Y-1062); test: as above; assay type: cell-based; details: for MIC: Klebsiella pneumoniae
# Method in brief: as §1
# [10] = system: Pseudomonas aeruginosa strain ATCC27853; test: as above; assay type: cell-based; details: Pseudomonas aeruginosa, ATCC27853
# Method in brief: as §1
# [11] = system: Escherichia coli TK-3113 strain producing IMP-8 (strain D); test: MIC of test compound alone or with β-lactamase inhibitor at 4 μg/mL; assay type: cell-based; details: Escherichia coli
# Experimental: (§2) By using a broth microdilution method, the combinational effect of a test compound and a β-lactamase inhibitor was evaluated.
# (§3) The evaluation test for antibacterial activity was performed in the same manner as in Test Example 1.
# Escherichia coli TK-3113 strain producing IMP-8 (hereinafter, called strain D),
# (§4) An antibacterial activity evaluation test was performed in the same manner as in Test Example 6.
# (§5) As the bacterial strain, the strains B, C, and D producing β-lactamase and a Klebsiella pneumoniae Y-1069 strain (hereinafter, called strain F) producing OXA-48 and CTX-M-15 were used.
# [12] = system: Klebsiella pneumoniae Y-1069 strain producing OXA-48 and CTX-M-15 (strain F); test: as above; assay type: cell-based; details: for MIC: Klebsiella pneumoniae, Strain F
# Experimental: as §3, §4, §5
# [13] = system: Klebsiella pneumoniae Y-1133 strain producing NDM-1, OXA-48, and CTX-M-15 (strain C); test: as above; assay type: cell-based; details: Klebsiella pneumoniae, with ZID at 4 μg/mL
# Experimental: as §2, §3
# Klebsiella pneumoniae Y-1133 strain producing NDM-1, OXA-48, and CTX-M-15 (hereinafter, called strain C),
# as §4, §5
# [14] = system: Klebsiella pneumoniae Y-1020 strain producing KPC-3 and SHV-12 (strain B); test: as above; assay type: cell-based; details: Klebsiella pneumoniae, Strain B, read-out: MIC
# Experimental: as §2, §3
# [15] = test compound alone (β-lactamase inhibitor N/A)
structure (smiles),measurement,setting,value
"Nc1nc(/C(=N/OC2(C(=O)O)CCC2)C(=O)N[C@@H]2C(=O)N3C[C@@](C(=O)O)(N4CCN(NC(=O)C(=O)c5ccc(O)c(O)c5Cl)C4=O)S[C@H]23)cs1 [Example 19, (3R,5R,6R)-6-((Z)-2-(2-aminothiazol-4-yl)-2-((-1-carboxycyclobutoxy)imino)acetamido)-3-(3-(2-(2-chloro-3,4-dihydroxyphenyl)-2-oxoacetamido)-2-oxoimidazolidin-1-yl)-7-oxo-4-thia-1-azabicyclo[3.2.0]heptane-3-carboxylic acid]",responders at 40 mg/kg,[1],≥ 90%
same,MIC,[2],0.5 µg/mL
same,MIC,[3],< 0.06 µg/mL
same,MIC,[4],0.25 µg/mL
same,MIC,[5],0.25 µg/mL
same,MIC,[6],2 µg/mL
same,MIC,[7],0.25 µg/mL
same,MIC,[8],0.25 µg/mL
same,MIC,[9],0.12 µg/mL
same,MIC,[10],0.25 µg/mL
"CC(C)(O/N=C(\C(=O)N[C@@H]1C(=O)N2C[C@@](C(=O)O)(N3CCN(NC(=O)C(=O)c4ccc(O)c(O)c4Cl)C3=O)S[C@H]12)c1nsc(N)n1)C(=O)O [Example 23, (3R,5R,6R)-6-((Z)-2-(5-amino-1,2,4-thiadiazol-3-yl)-2-(((2-carboxypropan-2-yl)oxy)imino)acetamido)-3-(3-(2-(2-chloro-3,4-dihydroxyphenyl)-2-oxoacetamido)-2-oxoimidazolidin-1-yl)-7-oxo-4-thia-1-azabicyclo[3.2.0]heptane-3-carboxylic acid]",responders at 40 mg/kg,[1],≥ 90%
same,MIC,[2],0.25 µg/mL
same,MIC,[3],< 0.06 µg/mL
same,MIC,[4],0.25 µg/mL
same,MIC,[5],1 µg/mL
same,MIC,[6],0.5 µg/mL
same,MIC,[7],0.25 µg/mL
same,MIC,[8],1 µg/mL
same,MIC,[9],0.5 µg/mL
same,MIC,[10],0.25 µg/mL
"Nc1nc(/C(=N/OC2(C(=O)O)CC2)C(=O)N[C@@H]2C(=O)N3C[C@@](C(=O)O)(N4CCN(NC(=O)CCNC(=O)C(=O)c5ccc(O)c(O)c5Cl)C4=O)S[C@H]23)cs1 [Example 31, (3R,5R,6R)-6-((Z)-2-(2-aminothiazol-4-yl)-2-((1-carboxycyclopropoxy)imino)acetamido)-3-(3-(3-(2-(2-chloro-3,4-dihydroxyphenyl)-2-oxoacetamido)propanamido)-2-oxoimidazolidin-1-yl)-7-oxo-4-thia-1-azabicyclo[3.2.0]heptane-3-carboxylic acid]",responders at 40 mg/kg,[1],≥ 90%
same,MIC,[2],1 µg/mL
same,MIC,[3],0.12 µg/mL
same,MIC,[4],0.12 µg/mL
same,MIC,[5],0.5 µg/mL
same,MIC,[6],< 0.06 µg/mL
same,MIC,[7],0.25 µg/mL
same,MIC,[8],1 µg/mL
same,MIC,[9],1 µg/mL
same,MIC,[10],0.25 µg/mL
"CC(C)[C@H](O/N=C(\C(=O)NC1C(=O)N2C[C@@](C(=O)O)(N3CCN(NC(=O)C(=O)c4ccc(O)c(O)c4Cl)C3=O)S[C@H]12)c1csc(N)n1)C(=O)O (stereo partly drawn) [Example 114, (3R,5R,6R)-6-((Z)-2-(2-aminothiazol-4-yl)-2-(((S)-1-carboxy-2-methylpropoxy)imino)-acetamido)-3-(3-(2-(2-chloro-3,4-dihydroxy-phenyl)-2-oxoaceta-mido)-2-oxoimidazol-idin-1-yl)-7-oxo-4-thia-1-azabicyclo[3.2.0]-heptane-3-carboxylic acid]",responders at 40 mg/kg,[1],≥ 90%
same,MIC,[2],0.25 µg/mL
same,MIC,[3],< 0.06 µg/mL
same,MIC,[4],0.25 µg/mL
same,MIC,[5],2 µg/mL
same,MIC,[6],1 µg/mL
same,MIC,[7],1 µg/mL
same,MIC,[8],4 µg/mL
same,MIC,[9],0.25 µg/mL
same,MIC,[10],2 µg/mL
CC(C)(O/N=C(\C(=O)NC1C(=O)N2C[C@@](C(=O)O)(N3CCN(NC(=O)/C(=N\O)c4ccc(O)c(O)c4Cl)C3=O)S[C@H]12)c1csc(N)n1)C(=O)O (stereo partly shown) [Example 117],responders at 40 mg/kg,[1],≥ 90%
same,MIC,[2],0.12 µg/mL
same,MIC,[3],< 0.06 µg/mL
same,MIC,[4],0.25 µg/mL
same,MIC,[5],2 µg/mL
same,MIC,[6],0.25 µg/mL
same,MIC,[7],0.5 µg/mL
same,MIC,[8],2 µg/mL
same,MIC,[9],0.5 µg/mL
same,MIC,[10],2 µg/mL
CC(C)(O/N=C(\C(=O)NC1C(=O)N2C[C@@](C(=O)O)(N3CCN(NC(=O)CCNC(=O)/C(=N\O)c4ccc(O)c(O)c4Cl)C3=O)S[C@H]12)c1csc(N)n1)C(=O)O (stereo partly shown) [Example 122],responders at 40 mg/kg,[1],≥ 90%
same,MIC,[2],0.5 µg/mL
same,MIC,[3],< 0.06 µg/mL
same,MIC,[4],0.5 µg/mL
same,MIC,[5],2 µg/mL
same,MIC,[6],2 µg/mL
same,MIC,[7],2 µg/mL
same,MIC,[8],2 µg/mL
same,MIC,[9],1 µg/mL
same,MIC,[10],1 µg/mL
"COCC(NC(=O)C(=O)c1ccc(O)c(O)c1Cl)C(=O)NN1CCN([C@]2(C(=O)O)CN3C(=O)C(NC(=O)/C(=N\OC(C)(C)C(=O)O)c4csc(N)n4)[C@H]3S2)C1=O (stereo partly drawn) [Example 139, (3R,5R,6R)-6-((Z)-2-(2-aminothiazol-4-yl)-2-(((2-carboxypropan-2-yl)oxy)imino)aceta-mido)-3-(3-((R)-2-(2-(2-chloro-3,4-dihy-droxyphenyl)-2-oxo-acetamido)-3-methoxy-propanamido)-2-oxo-imidazolidin-1-yl)-7-oxo-4-thia-1-azabicyclo-[3.2.0]heptane-3-car-boxylic acid]",responders at 40 mg/kg,[1],≥ 90%
same,MIC,[2],2 µg/mL
same,MIC,[3],0.12 µg/mL
same,MIC,[4],1 µg/mL
same,MIC,[5],2 µg/mL
same,MIC,[6],0.5 µg/mL
same,MIC,[7],1 µg/mL
same,MIC,[8],0.5 µg/mL
same,MIC,[9],4 µg/mL
same,MIC,[10],1 µg/mL
"C=C(O/N=C(\C(=O)NC1C(=O)N2C[C@@](C(=O)O)(N3CCN(NC(=O)C(=O)c4ccc(O)c(O)c4Cl)C3=O)S[C@H]12)c1csc(N)n1)C(=O)O (stereo partly drawn) [Example 144, (3R,5R,6R)-6-((Z)-2-(2-aminothiazol-4-yl)-2-(((1-carboxyvinyl)-oxy)imino)acetamido)-3-(3-(2-(2-chloro-3,4-dihydroxyphenyl)-2-oxoacetamido)-2-oxo-imidazolidin-1-yl)-7-oxo-4-thia-1-azabicyclo-[3.2.0]heptane-3-car-boxylic acid]",MIC,[11]; [15],0.5 µg/mL
same,MIC,[11]; with AVI at 4 μg/mL,0.25 µg/mL
same,MIC,[11]; with CVA at 4 μg/mL,0.25 µg/mL
same,MIC,[11]; with NAC at 4 μg/mL,< 0.015 µg/mL
same,MIC,[11]; with SBT at 4 μg/mL,0.25 µg/mL
same,MIC,[11]; with TAZ at 4 μg/mL,0.125 µg/mL
same,MIC,[11]; with ZID at 4 μg/mL,< 0.015 µg/mL
same,MIC,[12]; [15],4 µg/mL
same,MIC,[12]; with AVI at 4 μg/mL,0.25 µg/mL
same,MIC,[12]; with CVA at 4 μg/mL,2 µg/mL
same,MIC,[12]; with NAC at 4 μg/mL,0.06 µg/mL
same,MIC,[12]; with SBT at 4 μg/mL,2 µg/mL
same,MIC,[12]; with TAZ at 4 μg/mL,2 µg/mL
same,MIC,[12]; with ZID at 4 μg/mL,0.03 µg/mL
same,antibacterial activity in combination with a β-lactamase inhibitor versus without,"[12]; for all the bacterial strains (strains B, C, D and F), summary of Tables 51 and 52",higher antibacterial activity
same,Antibacterial activity (MIC) Escherichia coli TK-1747,[2]; Escherichia coli TK-1747,< 0.12 µg/mL
same,Antibacterial activity (MIC) Klebsiella pneumoniae Y-1007,[3]; Klebsiella pneumoniae Y-1007,< 0.12 µg/mL
same,Antibacterial activity (MIC) Klebsiella pneumoniae Y-995,[4]; Klebsiella pneumoniae Y-995,< 0.12 µg/mL
same,Antibacterial activity (MIC) Pseudomonas aeruginosa S-3759,[5]; Pseudomonas aeruginosa S-3759,1 µg/mL
same,Antibacterial activity (MIC) Pseudomonas aeruginosa S-3028,[6]; Pseudomonas aeruginosa S-3028,< 0.12 µg/mL
same,Antibacterial activity (MIC) Pseudomonas aeruginosa S-3779,[7]; Pseudomonas aeruginosa S-3779,0.25 µg/mL
same,Antibacterial activity (MIC) Pseudomonas aeruginosa S-2838,[8]; Pseudomonas aeruginosa S-2838,32 µg/mL
same,Antibacterial activity (MIC) Klebsiella pneumoniae Y-1062,[9]; Klebsiella pneumoniae Y-1062,0.5 µg/mL
same,Antibacterial activity (MIC) Pseudomonas aeruginosa ATCC 27853,[10],0.25 µg/mL
same,MIC,[13],< 0.015 µg/mL
same,MIC,[14]; [15],1 µg/mL
same,MIC,[14]; with AVI at 4 μg/mL,0.25 µg/mL
same,MIC,[14]; with CVA at 4 μg/mL,0.25 µg/mL
same,MIC,[14]; with NAC at 4 μg/mL,< 0.015 µg/mL
same,MIC,[14]; with ZID at 4 μg/mL,0.03 µg/mL
